Experimental data as given in US10695341B2, “Compositions and methods for treating endometriosis” (UNIVERSITY OF SOUTH FLORIDA, priority 2014, dated 2020).

Tests used:
LC3B-II [1] = experiment: Western blot for LC3B, T-HESC cells, HCQ; format: cell-based, human; conditions: 25 μM HCQ, 18 hours
LC3B-II [2] = experiment: Western blot for LC3B, life-extended human endometriotic cells, HCQ; format: cell-based; conditions: 25 μM HCQ, 18 hours
endometriotic lesions = experiment: Immunohistochemistry of lesions (CK8, ERα, PR); format: in vivo, mouse; conditions: PR immunohistochemical staining, lesions from HCQ-treated mice
Procedure: Collected samples were immediately preserved in 10% neutral buffered formalin at the animal facility. Samples were embedded in paraffin, sectioned, and transferred to slides for hematoxylin/eosin and immunohistochemical staining. A pathologist reviewed each case and delimited the region of interest, containing epithelial and stromal cells, for each specimen. A mouse tissue microarray was prepared at the Tissue Core Facility at the Moffitt Cancer Center. The mouse tissue microarray contained a total of 113 core samples, which included 10 uterine horns and 10 ovaries from both PBS and HCQ treated mice. As control specimens for the utilized antibodies, the TMA included mouse mammary tissue, liver, small intestine, and lymph nodes from a PBS treated mouse. Lesions were analyzed from independent blocks. Slides were stained using a Leica Bond RX automated system (Leica Biosytems, Buffalo Grove, Ill.) following manufacturers instructions with proprietary reagents. Slides were deparaffinized on an automated system with Dewax Solution (Leica Biosystems). […]

ATG5 and ATG3 mRNA = experiment: Real-time PCR of autophagic mediators in lesions; format: in vivo, C57BL/6 mice; conditions: lesions of HCQ-treated vs PBS-treated mice
Procedure: Total RNA was isolated using the RNeasy kit following the manufacturer's instructions (QIAGEN, Valencia, Calif.). RNA concentration and purity was determined using a 1000 NanoDrop (Thermo Scientific, Pittsburgh, Pa.). Lesion mass varied by samples, and this was reflected in the RNA amounts obtained (range of mass: 0.9 mg to 25 mg). Three RNA samples from uterine horns, having a 260/280 ratio higher than 1.8 and a 260/230 ratio higher than 1.7, were selected from recipient, donor, HCQ-treated, and PBS-treated animals (12 samples in total) for RT2-PCR analyses. Synthesis of cDNA was performed using 0.5 μg of total RNA, after DNA elimination step using the RT2 First Strand kit per manufacturer instructions (QIAGEN, Valencia, Calif.). After DNA elimination, the reaction mix was incubated at 42° C. for 15 min, followed by 95° C. for 5 min using a DNA Engine® Peltier Thermal cycler (Bio-Rad, Hercules, Calif.). A total of 102 μl of the cDNA reaction mix was added to the master mix containing 1,248 μl of RNAse-free water and 1,350 μl of 2× RT2 SYBR green master mix. Twenty-five μl of the master mix were carefully added to each well of the RT2 profiler PCR autophagy array. Quantification was performed using the Applied Biosystems cycler (Life Technologies, Grand Island, N.Y.). […] The PCR cycling program finalized with a melt curve analysis and data was analyzed using the QIAGEN web-based software.

CCN(CCO)CCCC(C)Nc1ccnc2cc(Cl)ccc12 (centres unmarked) [HCQ, hydroxychloroquine]
LC3B-II protein in T-HESC cells (LC3B-II [1]): increase
LC3B-II protein (western blot) (LC3B-II [2]): increased
stained lesions with absence of glandular components (endometriotic lesions): four out of the seven
ATG3 mRNA in lesions (ATG5 and ATG3 mRNA; p=0.0248): significant increase
ATG5 mRNA in lesions (ATG5 and ATG3 mRNA; p=0.0499): significant increase
